Source: patent US10717735B2, “Solid forms of a compound for modulating kinases” (Plexxikon Inc., priority 2017, dated 2020)
≈ marks a conversion by molar mass, not a printed value. Read-outs that look alike come from different tables or passages of the source.

Legend:
[1] = Dynamic vapor sorption (DVS); assay type: physicochemical; conditions: from about 5% to about 95% RH
Protocol: Dynamic Vapor […] DVS data were collected on a VTI SGA-100 Vapor Sorption Analyzer. NaCl and PVP were used as calibration standards. Samples were not dried prior to analysis. Adsorption and desorption data were collected over a range from 5 to 95% RH at 10% RH increments under a nitrogen purge. The equilibrium criterion used for analysis was less than 0.0100% weight change in 5 minutes with a maximum equilibration time of 3 hours. Data were not corrected for the initial moisture content of the samples.

[2] = Solubility estimates by solvent aliquot addition, visual observation; assay type: physicochemical
Protocol: Aliquots of various solvents were added to measured amounts of Compound I or forms of Compound I as described herein with agitation (typically sonication) at ambient temperature until complete dissolution was achieved, as judged by visual observation. Solubilities were calculated based on the total solvent used to give a solution; actual solubilities may be greater because of the volume of solvent portions utilized or a slow rate of dissolution. […] If dissolution occurred at the first aliquot the value was reported as “>”.

[3] = system: Eμ-TCL1 with advanced leukemia; experiment: Pharmacodynamic evaluation of antitumor effects in Eμ-TCL1 with advanced leukemia; assay type: in vivo, Mice; conditions: 20 mg/kg, qd, oral gavage, 8 days
Protocol: FIG. 24 panels A-C illustrate data related to the pharmacodynamic evaluation of antitumor effects of Compound I Free Acid Amorphous in Eμ-TCL1 with advanced leukemia. Mice were stratified according to leukemic peripheral blood lymphocytes (PBLs) and spleen palpation score to receive either vehicle or Compound I Free Acid Amorphous (20 mg/kg, qd, oral gavage) for 8 days. […] FIG. 24C is a representative immunoblot analysis of relative protein levels of cMYC, P21, BTK, IKZF1, IKZF3 and TCL1A protein at the end of the 8 day study. […] Mice were stratified according to leukemic peripheral blood lymphocytes (PBLs) and spleen palpation score to receive either vehicle or Compound I Free Acid Amorphous (20 mg/kg, qd, oral gavage) for 8 days. […] FIG. 24C is a representative immunoblot analysis of relative protein levels of cMYC, P21, BTK, IKZF1, IKZF3 and TCL1A protein at the end of the 8 day study.

[4] = system: Eμ-TCL1 leukemic splenocytes; experiment: Survival of mice engrafted with Eμ-TCL1 leukemic splenocytes, comparison with Ibrutinib; assay type: in vivo, C57BL/6 mice; conditions: 20 mg/kg, qd; for median overall survival (OS): oral gavage at leukemia onset, vehicle 21 days (FIG. 24H)
Protocol: FIG. 24H is a Kaplan-Meier curve showing overall survival for C57BL/6 mice engrafted with Eμ-TCL1 leukemic splenocytes treated with Ibrutinib or Compound I Free Acid Amorphous (20 mg/kg, qd, oral gavage) at leukemia onset, where the median OS is: 41 days (Compound I Free Acid Amorphous, n=7), 32 days (Ibrutinib, n=8) and 21 days (vehicle, n=7). […] Survival comparisons for FIG. 24H were made with the log-rank test, and p-values were adjusted for multiple comparisons.
FIG. 24H is a Kaplan-Meier curve showing overall survival (OS) for C57BL/6 mice engrafted with Eμ-TCL1 leukemic splenocytes treated with Ibrutinib or Compound I Free Acid Amorphous (Cmpd. I FAA) (20 mg/kg, qd, oral gavage) at leukemia onset. Survival comparisons for FIG. 24H were made with the log-rank test, and p-values were adjusted for multiple comparisons.
Ibrutinib is currently the standard of care (first-in-line) treatment.

[5] = system: adaptive transfer model of Eμ-TCL1; experiment: Adaptive transfer model of Eμ-TCL1, treatment at leukemia onset; assay type: in vivo, wild type mice; conditions: 20 mg/kg, qd
Protocol: (§1) FIG. 24 panels D-G: using an adaptive transfer model of Eμ-TCL1, recipient wild type mice were randomized to receive vehicle (n=12) or Compound I Free Acid Amorphous (20 mg/kg, qd, oral gavage, n=10) at leukemia onset and disease progression was measured by flow cytometry as % CD19/CD5/CD45 positive PBL. Treatment was ended at 150 days. FIG. 24D is a Kaplan-Meier curve showing overall survival (OS) (p<0.0001), with the median OS for Compound I Free Acid Amorphous and the vehicle being 93 days and 34 days, respectively. Survival comparisons for FIG. 24D were made with the log-rank test, and p-values were adjusted for multiple comparisons. Compound I Free Acid Amorphous decreased the percentage of circulating leukemic PBL (FIG. 24E), and reduced spleen mass (FIG. 24F).
as §1, with “Using” for “FIG. 24 panels D-G: using”

[6] = system: pre-clinical models of CLL; conditions: in vitro and in vivo; cited from earlier work
uveal melanoma (UM) = conditions: mouse xenograft models of uveal melanoma; cited from earlier work
[7] = methanol (MeOH), ambient temperature

Cc1noc(C)c1-c1cnc2c(-c3ccc(C(=O)O)cc3)cn([C@@H](C)c3ccccn3)c2c1 [Compound I Form A, 4-(6-(3,5-dimethylisoxazol-4-yl)-1-[(1S)-1-(2-pyridyl)ethyl]pyrrolo[3,2-b]pyridin-3-yl)benzoic acid]
DVS weight gain [1]: about 0.8% | solubility ([2]; acetone, ambient temperature): 36000 µg/mL (≈ 82.1 mM) | solubility ([2]; acetonitrile, organic solvent or mixture, thermodynamic from solid, acetonitrile (ACN), ambient temperature, read-out: Solubility): 6000 µg/mL (≈ 13.7 mM) | solubility ([2]; dichloromethane, organic solvent or mixture, thermodynamic from solid, dichloromethane (DCM), ambient temperature, read-out: Solubility): 12000 µg/mL (≈ 27.4 mM) | solubility [2, 7]: 6000 µg/mL (≈ 13.7 mM) | solubility ([2]; toluene, organic solvent or mixture, thermodynamic from solid, toluene, ambient temperature, read-out: Solubility): < 4000 µg/mL

Cc1noc(C)c1-c1cnc2c(-c3ccc(C(=O)O)cc3)cn([C@@H](C)c3ccccn3)c2c1 [Compound I Form D, 4-(6-(3,5-dimethylisoxazol-4-yl)-1-[(1S)-1-(2-pyridyl)ethyl]pyrrolo[3,2-b]pyridin-3-yl)benzoic acid]
solubility ([2]; acetone, ambient temperature): 4000 µg/mL (≈ 9.12 mM) | solubility ([2]; acetonitrile (ACN), ambient temperature): <3000 µg/mL | solubility ([2]; chloroform, organic solvent or mixture, thermodynamic from solid, chloroform, ambient temperature, read-out: Solubility): > 59000 µg/mL | solubility ([2]; dichloromethane (DCM), ambient temperature): 24000 µg/mL (≈ 54.7 mM) | solubility ([2]; diethyl ether, organic solvent or mixture, thermodynamic from solid, diethyl ether, ambient temperature, read-out: Solubility): < 2000 µg/mL | solubility ([2]; dioxane, organic solvent or mixture, thermodynamic from solid, dioxane, ambient temperature, read-out: Solubility): < 2000 µg/mL | solubility ([2]; ethanol, organic solvent or mixture, thermodynamic from solid, ethanol (EtOH), ambient temperature, read-out: Solubility): 9000 µg/mL (≈ 20.5 mM) | solubility ([2]; ethyl acetate, organic solvent or mixture, thermodynamic from solid, ethyl acetate (EtOAc), ambient temperature, read-out: Solubility): < 2000 µg/mL | solubility ([2]; isopropyl alcohol, organic solvent or mixture, thermodynamic from solid, isopropyl alcohol (IPA), ambient temperature, read-out: Solubility): 4000 µg/mL (≈ 9.12 mM) | solubility [2, 7]: >72000 µg/mL | solubility ([2]; tetrahydrofuran, organic solvent or mixture, thermodynamic from solid, tetrahydrofuran (THF), ambient temperature, read-out: Solubility): 4000 µg/mL (≈ 9.12 mM) | solubility ([2]; toluene, ambient temperature): <2000 µg/mL | solubility ([2]; water, thermodynamic from solid, water, ambient temperature, read-out: Solubility): 23000 µg/mL (≈ 52.5 mM)

Cc1noc(C)c1-c1cnc2c(-c3ccc(C(=O)O)cc3)cn([C@@H](C)c3ccccn3)c2c1 [Compound I Free Acid Amorphous, 4-(6-(3,5-dimethylisoxazol-4-yl)-1-[(1S)-1-(2-pyridyl)ethyl]pyrrolo[3,2-b]pyridin-3-yl)benzoic acid]
leukemic cells in systemic circulation ([3]; vs vehicle (FIG. 24A)): reduced | leukemic cells locally in spleen ([3]; vs vehicle (FIG. 24B)): reduced | median overall survival (OS) [4]: 41 days | survival compared with vehicle (p=0.024) and Ibrutinib (p=0.049) ([4]; oral gavage, log-rank test): significantly increased survival | spleen mass ([5]; oral gavage (FIG. 24F)): reduced | HE staining of spleen, lung and blood: lymphocytes ([5]; oral gavage (FIG. 24G)): depleted of lymphocytes | Ki67 staining of spleen, lung and blood ([5]; oral gavage (FIG. 24G)): mostly absent | median overall survival (OS) ([5]; oral gavage at leukemia onset, vehicle 34 days, p<0.0001 (FIG. 24D)): 93 days | percentage of circulating leukemic PBL ([5]; oral gavage, % CD19/CD5/CD45 positive PBL by flow cytometry (FIG. 24E)): decreased

Cc1noc(C)c1-c1cnc2c(-c3ccc(C(=O)O)cc3)cn([C@@H](C)c3ccccn3)c2c1 [Compound I, 4-(6-(3,5-dimethylisoxazol-4-yl)-1-[(1S)-1-(2-pyridyl)ethyl]pyrrolo[3,2-b]pyridin-3-yl) benzoic acid]
efficacy relative to B-cell receptor (BCR) signaling agents [6]: emulatesor exceeds the efficacy of B-cell receptor (BCR) signaling agents | tumor growth (uveal melanoma (UM)): significantly inhibited tumor growth | solubility ([2]; acetone, organic solvent or mixture, thermodynamic from solid, Acetone, read-out: Solubility): 3000 µg/mL (≈ 6.84 mM) | solubility ([2]; acetonitrile, organic solvent or mixture, thermodynamic from solid, Acetonitrile, read-out: Solubility): < 1000 µg/mL | solubility ([2]; dichloromethane, organic solvent or mixture, thermodynamic from solid, Dichloromethane, read-out: Solubility): < 1000 µg/mL | solubility ([2]; dimethyl sulfoxide, organic solvent or mixture, thermodynamic from solid, Dimethyl sulfoxide, read-out: Solubility): > 93000 µg/mL | solubility ([2]; ethanol, organic solvent or mixture, thermodynamic from solid, Ethanol, read-out: Solubility): < 1000 µg/mL | solubility ([2]; ethyl acetate, organic solvent or mixture, thermodynamic from solid, Ethyl acetate, read-out: Solubility): < 1000 µg/mL | solubility ([2]; isopropanol, organic solvent or mixture, thermodynamic from solid, Isopropanol, read-out: Solubility): < 1000 µg/mL | solubility ([2]; methanol, organic solvent or mixture, thermodynamic from solid, Methanol, read-out: Solubility): 1000 µg/mL (≈ 2.28 mM) | solubility ([2]; tetrahydrofuran, organic solvent or mixture, thermodynamic from solid, Tetrahydrofuran, read-out: Solubility): 19000 µg/mL (≈ 43.3 mM) | solubility ([2]; water, thermodynamic from solid, Water, read-out: Solubility): < 1000 µg/mL

C=CC(=O)N1CCC[C@@H](n2nc(-c3ccc(Oc4ccccc4)cc3)c3c(N)ncnc32)C1 [Ibrutinib, reference compound]
median overall survival (OS) [4]: 32 days
